These results are taken from ChEMBL document CHEMBL1146444, “RKS-1778, a new mammalian cell-cycle inhibitor and a key intermediate of the [11]cytochalasin group” (J Nat Prod, 1997).

Structures are written as SMILES. Activity calls are given as the source filed them. The rule behind the calls is not given here.

Experiment [1] in a line: Cell cycle arrest in mouse temperature-sensitive FT210 cells by accumulation at M phase at 2.0 uM by flow cytometry. The experiment is classed as functional, cell-based.
Experiment [2] is described as follows: Cell cycle arrest in mouse temperature-sensitive FT210 cells by accumulation at M phase at 2.1 uM by flow cytometry. The experiment is classed as functional, cell-based.

`CC(=O)O[C@@H]1/C=C/[C@](C)(O)C[C@@H](C)C/C=C/[C@H]2[C@@H]3O[C@]3(C)[C@@H](C)[C@H]3[C@H](Cc4ccccc4)NC(=O)[C@@]312`: the result in experiment [1] and in experiment [2] was Active.

On to `CC(=O)O[C@@H]1/C=C/[C@](C)(O)C[C@@H](C)C/C=C/[C@H]2C=C(C)[C@@H](C)[C@H]3[C@H](Cc4ccccc4)NC(=O)[C@]321`, for which the result in experiment [1] and in experiment [2] was Active.
